Numbered stars: 1 amine (or outer) side, 2 acyl side, 3 side chain; on linkers, the order of the positions; unused ones are H or OH. Bridge positions count the residues as written; N and C are the ends. Square brackets hold non-standard residues; d marks the D form. Peptide text beside a SMILES is read from it. * marks the point of attachment. hPhe(3-Cl-4-CF3) = N[C@@H](CCc1ccc(C(F)(F)F)c(Cl)c1)C(=O)O; hPhe(3-F,4-CF3) = N[C@@H](CCc1ccc(C(F)(F)F)c(F)c1)C(=O)O; NMePhe(4-CF3) = CN[C@@H](Cc1ccc(C(F)(F)F)cc1)C(=O)O; hPhe(4-CF3) = N[C@@H](CCc1ccc(C(F)(F)F)cc1)C(=O)O; X98 = O=C([C@H](CCOc1ccc(Cl)c(Cl)c1)N[*:1])[*:2]; NMePhe(4-Cl) = CN[C@@H](Cc1ccc(Cl)cc1)C(=O)O; NMePhe(4-Me) = CN[C@@H](Cc1ccc(C)cc1)C(=O)O; NMedβ3hAla = C[C@H](CC(=O)[*:2])N(C)[*:1]; NMeGly(cPent) = CN[C@H](C(=O)O)C1CCCC1; X67 = O=C([C@@H]1CCC[C@H]1N[*:1])[*:2]; NMeGly(cBu) = CN[C@H](C(=O)O)C1CCC1; Gly(cPent) = N[C@H](C(=O)O)C1CCCC1; NMeCha = CN[C@@H](CC1CCCCC1)C(=O)O; Gly(N-(CH2)2OEt) = CCOCCNCC(=O)O; NMeChg = CN[C@H](C(=O)O)C1CCCCC1; NMeI = CC[C@H](C)[C@H](NC)C(=O)O; d(β3hL) = CC(C)C[C@@H](N)CC(=O)O; NMeD = CN[C@@H](CC(=O)O)C(=O)O; dNMeD = CN[C@H](CC(=O)O)C(=O)O; NMeL = CN[C@@H](CC(C)C)C(=O)O; NMehSer = CN[C@@H](CCO)C(=O)O; NMeNle = CCCC[C@H](NC)C(=O)O; NMeAc5c = CNC1(C(=O)O)CCCC1; NMeV = CN[C@H](C(=O)O)C(C)C; d(β3hA) = C[C@@H](N)CC(=O)O; NMeAbu = CC[C@H](NC)C(=O)O; NMeA = CN[C@@H](C)C(=O)O; NMeAib = CNC(C)(C)C(=O)O; Piperidide = C1CCN(*)CC1; Pyrrolidide = C1CCN(*)C1; dNMeA = CN[C@H](C)C(=O)O; Ac5c = NC1(C(=O)O)CCCC1; Aze = O=C(O)[C@@H]1CCN1; Sar = CNCC(=O)O
target: protein-protein interaction between Kras and SOS1 (biotin-tagged human Kras loaded with GDP, His-tagged human SOS1) (Homo sapiens (Human), UniProt P01116, G12D); test: Protein-protein interaction inhibition between Kras and SOS1 (KrasG12D-SOS PPI) using AlphaScreen; format: biochemical; settings: AlphaScreen; biotin-tagged human Kras loaded with GDP, His-tagged human SOS1; read-out: KRAS G12D-SOS PPI IC50;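 note: kras produced in E. coli, Ni-coupled donor beads and streptavidin acceptor beads, excitation 680 nm with emission detected at 520–620 nm via singlet oxygen transfer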

Row | Structure (SMILES) | IC50 [µM]
1 | CC[C@H](C)[C@@H]1NC(=O)[C@H](CC(C)C)N(C)C(=O)C[C@@H](C(=O)N2CCCCC2)N(C)C(=O)[C@H](C2CCCCC2)N(C)C(=O)C2(CCCC2)NC(=O)[C@H](CCOC)N(C)C(=O)[C@H](CCc2ccc(C(F)(F)F)c(Cl)c2)NC(=O)CN(C)C(=O)[C@H](CC2CCCCC2)N(C)C(=O)CN(C)C(=O)CN(C)C1=O [Compound 2168] ([NMeL]I[Sar][Sar][NMeCha][Sar][hPhe(3-Cl-4-CF3)][NMehSer](Me)[Ac5c][NMeChg][NMeD]-Piperidide; lactam N-11) | 0.0013
2 | CC[C@H](C)[C@@H]1NC(=O)[C@H](CC(C)C)N(C)C(=O)C[C@@H](C)NC(=O)[C@H](C2CCCC2)N(C)C(=O)C2(CCCC2)NC(=O)[C@@H]2CCCN2C(=O)[C@H](CCc2ccc(C(F)(F)F)c(Cl)c2)NC(=O)[C@@H](C)N(C)C(=O)[C@H](Cc2ccc(C)cc2)N(C)C(=O)[C@@H]2CCN2C(=O)[C@H](C)N(C)C1=O [Compound 1504] (cyclo([Ac5c][NMeGly(cPent)][d(β3hA)][NMeL]I[NMeA][Aze][NMePhe(4-Me)][dNMeA][hPhe(3-Cl-4-CF3)]P)) | 0.057
3 | CC[C@H](C)[C@@H]1NC(=O)[C@H](C)N(C)C(=O)C[C@@H](C)N(C)C(=O)[C@H](CC(C)C)NC(=O)C(C)(C)N(C)C(=O)[C@H](CC(C)C)NC(=O)[C@H](CCc2ccc(C(F)(F)F)c(Cl)c2)NC(=O)[C@@H](C)N(C)C(=O)[C@H](Cc2ccc(C(F)(F)F)cc2)N(C)C(=O)CN(C)C(=O)CN(C)C1=O [Compound 1385] (cyclo(I[Sar][Sar][NMePhe(4-CF3)][dNMeA][hPhe(3-Cl-4-CF3)]L[NMeAib]L[NMedβ3hAla][NMeA])) | 0.2
4 | CC[C@H](C)[C@@H]1NC(=O)[C@H](C)N(C)C(=O)C[C@@H](C)NC(=O)[C@H](C(C)C)N(C)C(=O)C2(CCCC2)NC(=O)[C@@H]2CCCN2C(=O)[C@H](CCc2ccc(C(F)(F)F)c(Cl)c2)NC(=O)[C@@H](C)N(C)C(=O)[C@H](CC2CCCCC2)N(C)C(=O)[C@@H]2CCN2C(=O)[C@H](CC)N(C)C1=O [Compound 2012] (cyclo([Ac5c][NMeV][d(β3hA)][NMeA]I[NMeAbu][Aze][NMeCha][dNMeA][hPhe(3-Cl-4-CF3)]P)) | 0.2
5 | CCOCCN1CC(=O)NC2(CCCC2)C(=O)N(C)[C@@H](C2CCCCC2)C(=O)N(C)[C@H](C(=O)N2CCCCC2)CC(=O)N(C)[C@@H](CC(C)C)C(=O)N[C@@H]([C@@H](C)CC)C(=O)N(C)CC(=O)N(C)CC(=O)N(C)[C@@H](CC2CCCCC2)C(=O)N(C)CC(=O)N[C@@H](CCc2ccc(C(F)(F)F)c(Cl)c2)C1=O [Compound 872, (11S,17S,26S,29S,33S,36S)-11-[2-[3-chloro-4-(trifluoromethyl)phenyl]ethyl]-36-cyclohexyl-17-(cyclohexylmethyl)-9-(2-ethoxyethyl)-29-isobutyl-15,18,21,24,30,34,37-heptamethyl-26-[(1S)-1-methylpropyl]-33-(piperidine-1-carbonyl)-6,9,12,15,18,21,24,27,30,34,37-undecazaspiro[4.33]octatriacontane-7,10,13,16,19,22,25,28,31,35,38-undecone] ([NMeL]I[Sar][Sar][NMeCha][Sar][hPhe(3-Cl-4-CF3)][Gly(N-(CH2)2OEt)][Ac5c][NMeChg][NMeD]-Piperidide; lactam N-11) | 0.0019
6 | CC[C@H](C)[C@@H]1NC(=O)[C@H](C(C)C)N(C)C(=O)C[C@@H](C)NC(=O)[C@H](CC(C)C)N(C)C(=O)C2(CCCC2)NC(=O)[C@H](CC(C)C)N(C)C(=O)[C@H](CCc2ccc(C(F)(F)F)c(Cl)c2)NC(=O)CN(C)C(=O)[C@H](Cc2ccc(Cl)cc2)N(C)C(=O)CN(C)C(=O)CN(C)C1=O [Compound 1014] (cyclo([Ac5c][NMeL][d(β3hA)][NMeV]I[Sar][Sar][NMePhe(4-Cl)][Sar][hPhe(3-Cl-4-CF3)][NMeL])) | 0.013
7 | CC[C@H](C)[C@@H]1NC(=O)[C@H](CC(C)C)N(C)C(=O)C[C@H](C(=O)N2CCCC2)N(C)C(=O)[C@H](C2CCCC2)N(C)C(=O)C2(CCCC2)NC(=O)[C@@H]2CCCN2C(=O)[C@H](CCc2ccc(C(F)(F)F)c(Cl)c2)NC(=O)CN(C)C(=O)[C@H](CC2CCCCC2)N(C)C(=O)[C@@H]2CCN2C(=O)[C@H](C)N(C)C1=O [Compound 1868] ([NMeL]I[NMeA][Aze][NMeCha][Sar][hPhe(3-Cl-4-CF3)]P[Ac5c][NMeGly(cPent)][dNMeD]-Pyrrolidide; lactam N-11) | 0.1
8 | CC[C@H](C)[C@@H]1NC(=O)[C@H](CC(C)C)N(C)C(=O)C[C@@H](C)N(C)C(=O)[C@H](CC(C)C)NC(=O)C2(CCCC2)N(C)C(=O)[C@H](CC(C)C)NC(=O)[C@H](CCc2ccc(C(F)(F)F)c(F)c2)NC(=O)CN(C)C(=O)[C@H](CC2CCCCC2)N(C)C(=O)CN(C)C(=O)CN(C)C1=O [Compound 2] (cyclo(I[Sar][Sar][NMeCha][Sar][hPhe(3-F,4-CF3)]L[NMeAc5c]L[NMedβ3hAla][NMeL])) | 0.015
9 | CC[C@H](C)[C@@H]1NC(=O)[C@H](CC(C)C)N(C)C(=O)C[C@@H](C(=O)N2CCCCC2)N(C)C(=O)[C@H](C2CCCC2)N(C)C(=O)C2(CCCC2)NC(=O)[C@@H]2CCCN2C(=O)[C@H](CCc2ccc(C(F)(F)F)c(Cl)c2)NC(=O)CN(C)C(=O)[C@H](C2CCC2)N(C)C(=O)[C@@H]2CCN2C(=O)[C@H](C)N(C)C1=O [Compound 127] ([NMeL]I[NMeA][Aze][NMeGly(cBu)][Sar][hPhe(3-Cl-4-CF3)]P[Ac5c][NMeGly(cPent)][NMeD]-Piperidide; lactam N-11) | 0.00043
10 | CC(C)C[C@H]1C(=O)N[C@@H](C2CCCC2)C(=O)N(C)[C@@H](C)C(=O)N2CC[C@H]2C(=O)N(C)[C@@H](CC2CCCCC2)C(=O)N(C)CC(=O)N[C@@H](CCc2ccc(C(F)(F)F)c(Cl)c2)C(=O)N2CCC[C@H]2C(=O)NC2(CCCC2)C(=O)N(C)[C@@H](C(C)C)C(=O)N[C@H](C)CC(=O)N1C [Compound 966] (cyclo([Ac5c][NMeV][d(β3hA)][NMeL][Gly(cPent)][NMeA][Aze][NMeCha][Sar][hPhe(3-Cl-4-CF3)]P)) | 0.11
11 | CC[C@H](C)[C@@H]1NC(=O)[C@H](CC(C)C)N(C)C(=O)C[C@@H](C(=O)N2CCCCC2)N(C)C(=O)[C@H](C(C)C)N(C)C(=O)C2(CCCC2)NC(=O)[C@@H]2CCCN2C(=O)[C@H](CCc2ccc(C(F)(F)F)c(Cl)c2)NC(=O)CN(C)C(=O)[C@H](CC2CCCCC2)N(C)C(=O)[C@@H]2CCN2C(=O)[C@H](C)N(C)C1=O [Compound 476] ([NMeL]I[NMeA][Aze][NMeCha][Sar][hPhe(3-Cl-4-CF3)]P[Ac5c][NMeV][NMeD]-Piperidide; lactam N-11) | 0.0041
12 | CC[C@H](C)[C@@H]1NC(=O)[C@H](CC(C)C)N(C)C(=O)C[C@@H](CC(C)C)NC(=O)[C@H]([C@@H](C)CC)N(C)C(=O)C2(CCCC2)NC(=O)[C@@H]2CCCN2C(=O)[C@H](CCc2ccc(C(F)(F)F)c(Cl)c2)NC(=O)CN(C)C(=O)[C@H](Cc2ccc(C)cc2)N(C)C(=O)[C@@H]2CCN2C(=O)[C@H](C)N(C)C1=O [Compound 1995] (cyclo([Ac5c][NMeI][d(β3hL)][NMeL]I[NMeA][Aze][NMePhe(4-Me)][Sar][hPhe(3-Cl-4-CF3)]P)) | 0.34
13 | CCCC[C@H]1C(=O)N2CC[C@H]2C(=O)N(C)[C@@H](CC2CCCCC2)C(=O)N(C)[C@H](C)C(=O)N[C@@H](CCc2ccc(C(F)(F)F)c(Cl)c2)C(=O)N2CCC[C@H]2C(=O)NC2(CCCC2)C(=O)N(C)[C@@H](C(C)C)C(=O)N[C@H](C)CC(=O)N(C)[C@@H](C)C(=O)N[C@@H]([C@@H](C)CC)C(=O)N1C [Compound 2017] (cyclo([Ac5c][NMeV][d(β3hA)][NMeA]I[NMeNle][Aze][NMeCha][dNMeA][hPhe(3-Cl-4-CF3)]P)) | 0.35
14 | CC[C@H](C)[C@@H]1NC(=O)[C@H](C)N(C)C(=O)C[C@@H](C(=O)N2CCCCC2)N(C)C(=O)[C@H](C2CCCCC2)N(C)C(=O)C2(CCCC2)NC(=O)[C@@H]2CCCN2C(=O)[C@H](CCOc2ccc(Cl)c(Cl)c2)NC(=O)CN(C)C(=O)[C@H](CC2CCCCC2)N(C)C(=O)CN(C)C(=O)CN(C)C1=O [Compound 2039, (3S,9S,18S,21S,25S,28S,34S)-28-cyclohexyl-9-(cyclohexylmethyl)-3-[2-(3,4-dichlorophenoxy)ethyl]-7,10,13,16,21,22,26,29-octamethyl-18-[(1S)-1-methylpropyl]-25-(piperidine-1-carbonyl)spiro[1,4,7,10,13,16,19,22,26,29,32-undecazabicyclo[32.3.0]heptatriacontane-31,1′-cyclopentane]-2,5,8,11,14,17,20,23,27,30,33-undecone] ([NMeA]I[Sar][Sar][NMeCha][Sar][X98]P[Ac5c][NMeChg][NMeD]-Piperidide; lactam N-11) | 0.018
15 | CC[C@H](C)[C@@H]1NC(=O)[C@H](C(C)C)N(C)C(=O)[C@@H]2CCC[C@H]2NC(=O)[C@H](CC(C)C)N(C)C(=O)C2(CCCC2)NC(=O)[C@H](CC(C)C)N(C)C(=O)[C@H](CCc2ccc(C(F)(F)F)cc2)NC(=O)CN(C)C(=O)[C@H](Cc2ccc(Cl)cc2)N(C)C(=O)CN(C)C(=O)CN(C)C1=O [Compound 996] (cyclo([Ac5c][NMeL][X67][NMeV]I[Sar][Sar][NMePhe(4-Cl)][Sar][hPhe(4-CF3)][NMeL])) | 0.09
16 | CC[C@H](C)[C@@H]1NC(=O)[C@H](C)N(C)C(=O)C[C@@H](C)NC(=O)[C@H](CC(C)C)N(C)C(=O)[C@H](C(C)C)N(C)C(=O)[C@H](CC(C)C)N(C)C(=O)[C@H](CCc2ccc(C(F)(F)F)cc2)NC(=O)CN(C)C(=O)[C@H](Cc2ccc(Cl)cc2)N(C)C(=O)CN(C)C(=O)CN(C)C1=O [Compound 588] (cyclo(I[Sar][Sar][NMePhe(4-Cl)][Sar][hPhe(4-CF3)][NMeL][NMeV][NMeL][d(β3hA)][NMeA])) | 0.36
17 | CC[C@H](C)[C@@H]1NC(=O)[C@H](CC(C)C)N(C)C(=O)C[C@@H](C)NC(=O)[C@H](C2CCCC2)N(C)C(=O)C2(CCCC2)NC(=O)[C@@H]2CCCN2C(=O)[C@H](CCc2ccc(C(F)(F)F)c(Cl)c2)NC(=O)CN(C)C(=O)[C@H](CC2CCCCC2)N(C)C(=O)[C@@H]2CCN2C(=O)CN(C)C1=O [Compound 1499] (cyclo([Ac5c][NMeGly(cPent)][d(β3hA)][NMeL]I[Sar][Aze][NMeCha][Sar][hPhe(3-Cl-4-CF3)]P)) | 0.019

Reference: patent US20240148821A1, “PHARMACEUTICAL USE OF CYCLIC PEPTIDE COMPOUND” (CHUGAI SEIYAKU KABUSHIKI KAISHA, priority 2021, published 2024)
